Data on three compounds can be found in patent US10479752B2, “Deuterated tetramethyl dioic acids, compositions comprising them and uses thereof” (SYNDROMEX LTD., priority 2011, dated 2019).

The data set can be described thus: Chemical and isotopic stability as solutions in DMSO/phosphate buffered saline over 48 hours. The following applies: for analyte recovered, yield: summary over the study; for disenrichment of the product (isotopic stability): throughout the time period of the study.
The mark [1] stands for this setting: DMSO/PBS solution, 37° C., 24 h.
Setting [2] is: DMSO/PBS solution, 37° C., 48 h.
Where [3] appears, read: DMSO/PBS solution, 37° C., 96 h.
The mark [4] stands for this setting: Original Sample (before the stability study).

Each structure is given as a SMILES string. Marks after values point to notes of the source that are not given here.

In the case of `[2H]C([2H])(C(=O)O)C(C)(C)CCCCCCCCCCC(C)(C)C([2H])([2H])C(=O)O` [Compound 2, 3,3,14,14-Tetramethyl-1,16-[2-D2,15-D2]hexadecanediol acid], the “GC/MS IE (isotopic enrichment)” value reads like this: (DMSO/PBS solution, 37° C., 0 h) 97.9%; (DMSO/PBS solution, 37° C., 2 h) 98.0%; (DMSO/PBS solution, 37° C., 4 h) 98.0%; under setting [1], 98.0%; under setting [2], 98.0%; under setting [3], 98.0%. Also, the “HPLC Area Percentage” value (DMSO/PBS solution, 37° C., 0 h) amounted to 94.9%; the “HPLC Area Percentage” value (DMSO/PBS solution, 37° C., 2 h) was determined as 95.5%; the “HPLC Area Percentage” value (DMSO/PBS solution, 37° C., 4 h) was determined as 95.4%; the “HPLC Area Percentage” value under setting [1] is 95.2%; the “HPLC Area Percentage” value under setting [2] worked out at 96.0%; the “HPLC Area Percentage” value under setting [3] was 96.1%. Further, the “HPLC Area Percentage” value under setting [4] is 97.0%. The “HPLC Assay” value was 67.4% (DMSO/PBS solution, 37° C., 0 h); 65.1% (DMSO/PBS solution, 37° C., 2 h); 62.4% (DMSO/PBS solution, 37° C., 4 h); 86.0% under setting [1]; 76.8% under setting [3]. Further, under “DMSO/PBS solution, 37° C., all samples through the study”, the “chemical purity (HPLC area percent) with respect to related substances” value is given as “around 96%”. Also, for the setting “DMSO/PBS solution, 37° C.”, the “analyte recovered, yield” value is recorded as “approximately 90%”.

Take `[2H]C([2H])(C(=O)O)C(C)(C)CCCCCCCCCCCCC(C)(C)C([2H])([2H])C(=O)O` [Compound 5, 3,3,16,16-tetramethyl-1,18-[2-D2,17-D2]octadecanedioic acid]: the “GC/MS IE (isotopic enrichment)” value reads like this: (DMSO/PBS solution, 37° C., 0 h) 96.3%; (DMSO/PBS solution, 37° C., 2 h) 95.9%; (DMSO/PBS solution, 37° C., 4 h) 96.0%; under setting [1], 96.0%; under setting [2], 95.5%; under setting [3], 96.1%. The “HPLC Area Percentage” value was determined as 98.4% (DMSO/PBS solution, 37° C., 0 h); 98.0% (DMSO/PBS solution, 37° C., 2 h); 98.5% (DMSO/PBS solution, 37° C., 4 h); 98.4% under setting [1]; 98.0% under setting [2]; 98.7% under setting [3]. Moreover, the “HPLC Area Percentage” value under setting [4] was 100.0%. Also, the “HPLC Assay” value by setting is: (DMSO/PBS solution, 37° C., 0 h) 57.0%; (DMSO/PBS solution, 37° C., 2 h) 44.6%; (DMSO/PBS solution, 37° C., 4 h) 46.3%; under setting [1], 95.3%; under setting [2], 213.8%*; under setting [3], 79.8%. The “analyte recovered, yield” value (DMSO/PBS solution, 37° C.) is reported as “about 95%”. Further, the “disenrichment of the product (isotopic stability)” value (DMSO/PBS solution, 37° C.) is “No disenrichment”.

Regarding `[2H]C([2H])([2H])C(CCCCCCCCCCCCC(CC(=O)O)(C([2H])([2H])[2H])C([2H])([2H])[2H])(CC(=O)O)C([2H])([2H])[2H]` [Compound 6, 3,3,16,16-[D12]Tetramethyl-1,18-octadecanedioic acid], the “GC/MS IE (isotopic enrichment)” value turned out to be 99.2% (DMSO/PBS solution, 37° C., 0 h); 99.0% (DMSO/PBS solution, 37° C., 2 h); 99.1% (DMSO/PBS solution, 37° C., 4 h); 99.0% under setting [1]; 99.1% under setting [2]. Also, the “HPLC Area Percentage” value stood at 98.4% (DMSO/PBS solution, 37° C., 0 h); 98.6% (DMSO/PBS solution, 37° C., 2 h); 97.9% (DMSO/PBS solution, 37° C., 4 h); 98.5% under setting [1]; 98.7% under setting [2]; 100.0% under setting [4]. For the same compound, the “HPLC Assay” value was determined as 39.0% (DMSO/PBS solution, 37° C., 0 h); 33.1% (DMSO/PBS solution, 37° C., 2 h); 35.6% (DMSO/PBS solution, 37° C., 4 h); 39.8% under setting [1]; 59.6% under setting [2]. Moreover, the “analyte recovered, yield” value (DMSO/PBS solution, 37° C.) was “about 95%”. Besides, for the setting “DMSO/PBS solution, 37° C.”, the “disenrichment of the product (isotopic stability)” value is “No disenrichment”.
